Measured values taken from patent publication US20240067603A1, “CUBANYL BIGUANIDE COMPOUNDS” (REGENTS OF THE UNIVERSITY OF MINNESOTA, priority 2020, published 2024).
pIC50: −log10 of the molar value. Where two headings read alike, the source gives them in different places.

How the values were obtained:
[1] = Pharmacokinetics in mice plasma (LC-MS/MS); format: in vivo; conditions: for AUC, subcutaneous vs IV, intraperitoneal or oral: FIGS. 14-15; for HL_Lambda_z: mice plasma; for Cmax / Tmax: mouse, plasma
Protocol: HBB PK method: HBB in mice plasma was determined with an LC-MS/MS method using d5-HBB as the internal standard.
Sample preparation: HBB in 150 μL mice plasma was extracted by addition of 300 μL acetonitrile spiked with d5-HBB internal standard (0.5 ug/ml). The extraction mixture was centrifuged at 12,000×g for 5 minutes and 150 μL of supernatant was saved for LC-MS/MS analysis.
(§1) LC-MS/MS method: A Quattro Ultima mass spectrometer (Waters, Milford, MA) equipped with an Acquity UPLC (Waters, Milford, MA) and interfaced through an MassLynx software (Waters, Milford, MA) was used. HBB and d5-HBB were resolved at base line with a Zorbax Eclipse XDG-C18 column (4.6×50 mm, 1.8 micron) (Agilent, Santa Clara, CA). Mobile phases were A: water (0.1% formic acid) and B: acetonitrile (0.1% formic acid). The flow rate was 250 μL/min. Elution gradient was as follow: 0-5 min, 90% A and 10% B; 5 min, 10% A and 90% B; 5.25 min, 90% A and 10% B; 10 min, 90% A and 10% B. At positive mode, ion transition for HBB 276.01 mz to 91.02 mz and d5-HBB 281.09 to 96.06 were monitored.
Quantification: Quantitation was carried out by the MassLynx software based on an HBB standard curve (1.5-1500 ng/ml). Per FDA bioanalytical method validation guideline, standards and plasma samples were bracketed with QC samples to ensure accuracy and precision of the measurement.
HCB PK method: HCB in mouse plasma was determined with an LC-MS/MS method using d5-HBB as the internal standard.
Sample preparation: HCB in 150 μL mice plasma was extracted by addition of 300 μL acetonitrile spiked with d5-HBB internal standard (0.5 ug/ml). The extraction mixture was centrifuged at 12,000×g for 5 minutes and 150 μL of supernatant was saved for LC-MS/MS analysis.
as §1, with “used. Neo biguanide” for “used. HBB”, “Eclipse XDB-C18 Rapid Resolution HT (P.M. 927975-902)” for “Eclipse XDG-C18”, “for” for “for HBB 276.01 mz to 91.02 mz and”, “96.06 and corresponding neo biguanide parent daughter ion transition” for “96.06”
Quantification: Quantitation was carried out by the MassLynx software based on an HCB standard curve (1.5-1500 ng/ml). Per FDA bioanalytical method validation guideline, standards and plasma samples were bracketed with QC samples to ensure accuracy and precision of the measurement.

[2] = Cytotoxicity assay in 293T/ACE2 cells; conditions: human, HEK293T/17 cells expressing human ACE2
[3] = system: 293T human embryonic kidney cells over-expressing the ACE2 receptor; assay: Cytotoxicity assay in 293T/ACE2 cells; conditions: 293T/ACE2 cytotoxicity
[4] = Microsomal stability, mouse liver microsomes; format: in vitro ADME; conditions: 10 μM, mouse liver microsomes 1 mg/mL, NADPH 2 mM, 37° C.
Protocol: Microsomal stability of HBB and HCB were evaluated in human and mouse liver microsomes. 10 μM of HBB or HCB was tested in a biological matrix comprising of human or mouse liver microsomes (1 mg/mL) (Table 6). NADPH (2mM) was added as a cofactor. Total volume was 200 μL.
HBB or HCB was incubated for 0, 30, or 60 min at 37° C. Incubations were quenched with 2 volumes of acetonitrile followed by centrifugation for 10 min at 16,000 g.

LR/FR/PR MCF7A1C cells = assay: Crystal violet cell proliferation assay, LR,FR,PR-MCF7AC1; format: cell-based; conditions: Homo sapiens, read-out: IC50, LR/FR/PR MCF7A1C cells
Protocol: Cell proliferation assay: The cells mentioned in this study were seeded in 96 wells-plates (2000-4000 cells/well) and treated 24 hours later with DMSO (vehicle control), HCB or HBB drugs at the indicated concentrations. […] The CV stained plates were solubilized in 100 mM sodium citrate in 50% ethanol solution and absorbance of the stain measured at 550 nm using a plate reader. Each data point represents mean±SD, obtained from six wells per treatment performed in biological triplicates.

in vitro = conditions: African green monkey, Vero E6 cells
mm001 = assay: Inhibition of mammary carcinoma cell line mm001; format: cell-based, mouse (C57BL/6); conditions: Mus musculus, read-out: IC50 (uM), mm001
Protocol: 3-(4,5-Dimethylthiazol-2-yl)-2,5-diphenyltetrazolium Bromide (MTT) Cell Proliferation Assay. To cells grown in 96-well-tissue culture plate, 20 μl/well of MTT solution (5 mg/ml in PBS) was added. After 1-2 hours incubation at 37° C., the plate was centrifuged. Supernatant was discarded and 100 μl DMSO was added to dissolve water insoluble formazan, and the absorbance was read at 540 nm with a plate reader.

MCF10A cells = assay: Crystal violet cell proliferation assay, MCF10A; format: cell-based; conditions: Homo sapiens, MCF-10A, 72 hours
Protocol: Cell proliferation assay: The cells mentioned in this study were seeded in 96 wells-plates (2000-4000 cells/well) and treated 24 hours later with DMSO (vehicle control), HCB or HBB drugs at the indicated concentrations. 72 hours later, the cells were fixed in situ with 25% (v/v) glutaraldehyde, followed by staining with 0.52% crystal violet (CV) in 25% methanol (Fisher Chemical). The CV stained plates were solubilized in 100 mM sodium citrate in 50% ethanol solution and absorbance of the stain measured at 550 nm using a plate reader. Each data point represents mean±SD, obtained from six wells per treatment performed in biological triplicates. All reagents were from Sigma-Aldrich unless otherwise stated.

SARS-CoV-2 [5] = assay: microbe, parasite or virus in culture; format: cell-based; conditions: Severe acute respiratory syndrome coronavirus 2, 293T/ACE2, FIG. 12; for pIC50: read-out: antiviral IC50; for IC90: read-out: antiviral IC90
SARS-CoV-2 [6] = assay: SARS-CoV-2 antiviral assay in Vero cells; format: cell-based; conditions: Severe acute respiratory syndrome coronavirus 2, Vero cells, FIG. 11; for pIC50: read-out: antiviral IC50; for IC90: read-out: antiviral IC90

Structure (SMILES)	AUC, subcutaneous vs IV, intraperitoneal or oral [1]	CC50 [2] [µM]	CC10 [3] [µM]	parent metabolite peak area after 60 min [4] [%]	CC50 at 48 h (in vitro) [µM]	pIC50 (MCF10A cells)	pIC50 (SARS-CoV-2 [5])	IC90 (SARS-CoV-2 [5]) [µM]	pIC50 (SARS-CoV-2 [6])	IC90 (SARS-CoV-2 [6]) [µM]	other results
CCCCCCNC(=N)NC(=N)NCc1ccccc1 [HBB, N1-hexyl-N5-benzyl-biguanide]	better AUC	26	1.5	8.95	> 20	5.28	6.09	11.3	< 4.70	> 20	Cl_F_obs ([1]; IP): 88.25 mL/min/kg; Vz_F_obs ([1]; IP): 62.842 L/kg; HL_Lambda_z ([1]; IP): 8.23 h; Cl_obs ([1]; IV): 50.65 mL/min/kg; Vz_obs ([1]; IV): 32.933 L/kg; HL_Lambda_z ([1]; IV): 7.51 h; Cl_F_obs ([1]; SC): 32.89 mL/min/kg; Vz_F_obs ([1]; SC): 23.131 L/kg; fold greater AUC, subcutaneous than ip ([1]; SC vs ip): 2.6 fold; HL_Lambda_z ([1]; SC): 8.13 h; Cmax ([1]; ip): 1840 ng/mL; Tmax ([1]; ip): 1 min; Cmax ([1]; iv): 20100 ng/mL; Tmax ([1]; iv): 1 min; Cmax ([1]; sc): 1860 ng/mL; Tmax ([1]; sc): 5 min; pIC50 (LR/FR/PR MCF7A1C cells; 72 h): 5.31; IC50 (mm001): 26.8 µM
CCCCCCNC(=N)NC(=N)NCC12C3C4C5C3C1C5C42 (stereo not shown) [HCB, Hexyl Cubanomethyl Biguanide]	better AUC	7.2	1.04	18.63	13.3	5.60	6.15	4.8	4.81	19.6	pIC50 (LR/FR/PR MCF7A1C cells; letrozole-, fulvestrant- and palbociclib-resistant, 72 hours, crystal violet): 5.77; IC50 (mm001; Table 5, mm001, C57BL/6, Basal): 12.1 µM
